In brackets after ≈: the same amount, converted by molar mass.
Legend:
[1] = system: melanoma B-16 tumor cells; assay: Antitumor activity, B-16 melanoma transplanted intraperitoneally in mice (NCI protocol 1,300), life span prolongation; assay type: in vivo; conditions: intraperitoneally once daily for 9 consecutive days
Protocol: Therapeutic tests were carried out in mice according to NCI-protocol 1,300, Cancer Chemother, Reports, Part 3, 1972, Vol. 3, No. 2, in which melanoma B-16 tumor cells had been intraperitoneally transplanted, compound (I) being administered intraperitoneally once daily for 9 consecutive days.

Tetrahymena pyriformis W = assay: Antiprotozoal activity, growth inhibition by the serial dilution method; assay type: cell-based; conditions: 28° C., 44 to 48 hours, pH 7.0
Protocol: Antioprotozoal activity of compound (I) was assayed with Tetrahymena pyriformis W as the test organism and a medium composed of 20 g tryptose-peptone (Difco Co.), 1 g yeast extract, 2 g glucose, 1000 ml distilled water, 10 ml 1 M phosphate buffer (pH 7.0) as the assay medium. The micoorganism was incubated at 28° C. for 44 to 48 hours and the growth inhibitory activity of compound (I) was assayed by the serial dilution method.

COc1cc2cc(c1Cl)N(C)C(=O)CC(OC(=O)C(N)c1ccccc1)C1(C)OC1C(C)C1CC(O)(NC(=O)O1)C(OC)/C=C/C=C(\C)C2 (single isomer, unassigned) [maytansinol 3-α-aminophenylacetate]
Antitumor activities B-16 (T/C%) ([1]; dose 100 μg/kg): 208% | Antitumor activities B-16 (T/C%) ([1]; dose 400 μg/kg): 208% | Antitumor activities B-16 (T/C%) ([1]; dose 800 μg/kg): 208% | MIC (Tetrahymena pyriformis W): 10 to 20 µg/mL (≈ 14.3 to 28.6 µM)

From patent US4308269A, “Maytansinoids, pharmaceutical compositions thereof and method of use thereof” (Takeda Chemical Industries, Ltd., priority 1979, dated 1981)
